Test results taken from patent US20260083865A1, “PROSTATE SPECIFIC MEMBRANE ANTIGEN (PSMA) LIGANDS AND USE THEREOF” (priority 2022, published 2026).
Where two headings read alike, the source gives them in different places. Numbered stars: 1 amine (or outer) side, 2 acyl side, 3 side chain; on linkers, the order of the positions; unused ones are H or OH. Bridge positions count the residues as written; N and C are the ends. Square brackets hold non-standard residues; d marks the D form. Side chains are listed from the residue outwards. Peptide text beside a SMILES is read from it. * marks the point of attachment. TtdsdLys(DOTA)NH2 = NC(=O)[C@@H](CCCCNC(=O)CN1CCN(CC(=O)O)CCN(CC(=O)O)CCN(CC(=O)O)CC1)NC(=O)CCC(=O)NCCCOCCOCCOCCCN*; Acetyl(1-DOTA-4-piperidyl) = O=C(O)CN1CCN(CC(=O)O)CCN(CC(=O)N2CCC(CC(=O)*)CC2)CCN(CC(=O)O)CC1; DOTA = O=C(O)CN1CCN(CC(=O)O)CCN(CC(=O)*)CCN(CC(=O)O)CC1; Phe(4-Cl) = N[C@@H](Cc1ccc(Cl)cc1)C(=O)O; Arg(Me) = CNC(=N)NCCC[C@H](N)C(=O)O; hArg = N=C(N)NCCCC[C@H](N)C(=O)O; 3Pal = N[C@@H](Cc1cccnc1)C(=O)O; X1 = O=C(CC1CCN([*:1])CC1)[*:2]; Lys(Me) = CNCCCC[C@H](N)C(=O)O; NMeN = CN[C@@H](CC(N)=O)C(=O)O; Tle = CC(C)(C)[C@H](N)C(=O)O; Nle = CCCC[C@H](N)C(=O)O; Hexanoyl = CCCCCC(=O)*; AEEA = NCCOCCOCC(=O)O; Aib = CC(C)(N)C(=O)O

Legend:
[1] = biological target: T1, Fc-fusion protein of human PSMA (hPSMA-Fc) (Homo sapiens, UniProt Q04609); assay: Surface plasmon resonance assay (Biacore T200, single cycle kinetic); assay type: binding; conditions: for Kd: read-out: pKD CAT (converted)
T1 construct: purchased Acro Biosystems PSA-H5264
Method: Surface plasmon resonance (SPR) studies were performed using a Biacore™ T200 SPR system. Briefly, polarized light is directed towards a gold-labeled sensor surface, and minimum intensity reflected light is detected. The angle of reflected light changes as molecules bind and dissociate.
Fc-fusion protein of human PSMA (hPSMA-Fc, Acro Biosystems, Cat #PSA-H5264) was captured on a Fc-capture chip (Biacore™ CM5 sensor chip coated with ˜300 RU of an Fc-binding peptide). hPSMA-Fc was diluted in Running Buffer (HBST, 0.1% DMSO) to a final concentration of 100 nM and then flushed over the Fc-capture chip to immobilized ˜1000 RUs.
Stock solutions of test compounds were prepared by dissolving each compound in DMSO. DMSO stock solution were diluted 1:1000 in Running Buffer without DMSO. Further sequential dilutions were made with Running Buffer containing 0.1% DMSO. SPR binding analyses were performed in Single Cycle Kinetic (SCK) mode at 25° C. Flow cell coated with the Fc-binding peptide only served as reference flowcell. After each SCK run, hPSMA-Fc was removed with 10 mM glycine buffer, pH 1.5.
In between every three SCK measurements, a blank run with Running Buffer instead of test compound was included to correct for baseline drifts (double blanking method).
Table 5 describes the protocol steps for Fc-fusion target capturing and assessment of the binding kinetics.
For each test compound, SPR raw data in the form of resonance units (RU) were plotted as sensorgrams using the Biacore™ T200 control software. The signal from the blank sensorgram was subtracted from that of the test compound sensorgram (blank corrected). The blank corrected sensorgram was corrected for baseline drift by subtracting the sensorgram of a SCK run without the test compound (running buffer only). The dissociation constant (KD) was calculated from Blank-normalized SPR data using the 1:1 Langmuir binding model from the Biacore™ Insight Evaluation software. The pKD value (negative decadic logarithm of dissociation constant) was calculated using Microsoft Excel.

[2] = biological target: T2, PSMA-expressing C4-2 cells (Homo sapiens, UniProt Q04609); assay: FACS binding assay (competition with 50 nM PSM-0183); conditions: for IC50: read-out: pIC50 [C4-2] CAT (converted)
T2 construct: PSMA-expressing C4-2 cells (ATCC, Cat. No. CRL-3314) were cultured in RPMI-1640; host or cells: C4-2 cells
Method: In order to determine binding of compounds according to the present invention to PSMA-expressing cells, a FACS binding assay was established.
PSMA-expressing C4-2 cells (ATCC, Cat. No. CRL-3314) were cultured in RPMI-1640 (Pan Biotech, Cat. No. P04-18050) including 10% fetal calf serum (Biochrom) and 100 U/ml penicillin and 100 μg/mL streptomycin (Sigma, Cat. No. P0781). Cells were detached with Accutase (Biolegend, Cat. No. BLD-423201) and washed in FACS buffer (PBS (Sigma, Cat. No. D8537) including 1% fetal calf serum). Cells were diluted in FACS buffer to a final concentration of 500,000 cells per mL. 200 μL of the cell suspension were transferred to a u-shaped non-binding 96-well plate (Greiner Bio-One, Cat. No. 650901) and cells were washed in ice-cold FACS buffer.
For IC50 determination, C4-2 cells were incubated with 50 nM PSM-0183 (Ac-Thr-Aib-Phe[Cys-Lys-Arg-Aib-Asn-Cys]-Tle-Thr-Asp-Ttds-Ttds-AF488N3K-NH2) in the presence of increasing concentrations of test compounds at 4° C. for 1 hour. After two wash steps with ice-cold FACS buffer, cells were analyzed in an Attune NxT flow cytometer. Median fluorescence intensities (MFI) of the FITC/AF488-channel were calculated by Attune NxT software. MFI values were plotted against peptide concentration and four parameter logistic (4PL) curve fitting and IC50/pIC50 calculations were performed using ActivityBase software (IDBS).

[3] = pKD category for PSMA SPR activity assay, hPSMA-Fc, 25° C.
[4] = pIC50 category of FACS binding, C4-2 cells
[5] = PSMA SPR assay, hPSMA-Fc, 25° C., pKD category
[6] = FACS binding, PSMA-expressing C4-2 cells, pIC50 category
[7] = SPR, hPSMA-Fc, single cycle kinetic, 25° C., category
[8] = FACS binding, C4-2 cells, competition with 50 nM PSM-0183, category

T2 sequence (Q04609 whole entry): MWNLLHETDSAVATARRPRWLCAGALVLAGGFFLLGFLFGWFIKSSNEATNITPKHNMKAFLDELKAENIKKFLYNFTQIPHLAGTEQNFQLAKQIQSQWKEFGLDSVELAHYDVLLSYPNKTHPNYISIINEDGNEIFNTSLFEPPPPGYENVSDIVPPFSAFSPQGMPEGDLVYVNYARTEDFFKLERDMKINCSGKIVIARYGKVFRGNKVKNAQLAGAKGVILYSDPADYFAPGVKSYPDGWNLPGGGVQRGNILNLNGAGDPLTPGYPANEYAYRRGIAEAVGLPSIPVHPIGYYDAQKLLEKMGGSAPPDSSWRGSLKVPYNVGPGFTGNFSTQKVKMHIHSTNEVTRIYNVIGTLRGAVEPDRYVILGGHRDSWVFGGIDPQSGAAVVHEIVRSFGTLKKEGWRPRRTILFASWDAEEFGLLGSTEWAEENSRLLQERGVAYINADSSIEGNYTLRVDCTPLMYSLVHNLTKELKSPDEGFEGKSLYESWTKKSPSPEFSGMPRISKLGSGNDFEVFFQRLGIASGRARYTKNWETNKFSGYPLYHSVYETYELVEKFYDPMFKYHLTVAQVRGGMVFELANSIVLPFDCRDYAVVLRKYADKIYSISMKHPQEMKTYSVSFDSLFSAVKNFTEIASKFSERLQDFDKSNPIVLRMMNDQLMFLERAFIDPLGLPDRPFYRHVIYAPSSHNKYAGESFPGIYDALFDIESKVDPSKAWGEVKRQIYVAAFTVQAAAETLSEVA
T1 sequence (Q04609 44-750 limits assumed): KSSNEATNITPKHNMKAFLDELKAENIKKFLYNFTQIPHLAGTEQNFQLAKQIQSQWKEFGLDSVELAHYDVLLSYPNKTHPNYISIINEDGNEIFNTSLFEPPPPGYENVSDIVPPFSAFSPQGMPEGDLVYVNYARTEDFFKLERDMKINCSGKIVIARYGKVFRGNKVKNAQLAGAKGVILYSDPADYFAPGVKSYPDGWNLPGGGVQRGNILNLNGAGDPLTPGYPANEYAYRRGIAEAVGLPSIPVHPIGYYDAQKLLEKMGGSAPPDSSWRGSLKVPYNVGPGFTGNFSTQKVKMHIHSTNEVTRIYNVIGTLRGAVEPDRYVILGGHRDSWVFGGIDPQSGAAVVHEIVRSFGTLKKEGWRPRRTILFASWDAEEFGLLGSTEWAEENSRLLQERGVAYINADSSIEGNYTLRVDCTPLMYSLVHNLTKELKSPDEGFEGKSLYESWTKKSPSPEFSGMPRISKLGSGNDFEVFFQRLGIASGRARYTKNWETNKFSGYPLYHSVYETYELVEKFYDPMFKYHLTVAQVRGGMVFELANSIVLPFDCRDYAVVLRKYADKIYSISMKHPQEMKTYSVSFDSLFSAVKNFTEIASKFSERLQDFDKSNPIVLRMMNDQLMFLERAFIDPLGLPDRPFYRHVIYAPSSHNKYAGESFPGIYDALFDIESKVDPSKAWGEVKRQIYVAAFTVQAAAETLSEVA

C[C@@H]1NC(=O)[C@H](CCCNC(=N)N)NC(=O)[C@H](CCCCN)NC(=O)[C@@H](NC(=O)[C@H](Cc2ccc(Cl)cc2)NC(=O)C(C)(C)NC(=O)[C@@H](NC(=O)CC2CCN(C(=O)CN3CCN(CC(=O)O)CCN(CC(=O)O)CCN(CC(=O)O)CC3)CC2)[C@@H](C)O)CSSC[C@@H](C(=O)N[C@H](C(=O)N[C@H](C(N)=O)[C@@H](C)O)C(C)(C)C)NC(=O)[C@H](CC(N)=O)N(C)C1=O [PSM-0585, DOTA-Cmp-Thr-Aib-Pcf-[Cys-Lys-Arg-Ala-Nmn-Cys]-Tle-Thr-NH2] ({DOTA}-[X1]T[Aib][Phe(4-Cl)]CKRA[NMeN]C[Tle]T-NH2; disulfide 5-10)
Kd ([1]; PSMA SPR assay, category): 0.0126 to 0.126 µM | IC50 ([2]; FACS binding, C4-2 cells, category): < 0.2 µM

CCCC[C@H](NC(=O)[C@@H]1CSSC[C@H](NC(=O)[C@H](Cc2ccccc2)NC(=O)C(C)(C)NC(=O)[C@@H](NC(C)=O)[C@@H](C)O)C(=O)N[C@@H](CCCCN)C(=O)N[C@@H](CCCNC(=N)N)C(=O)N[C@@H](C)C(=O)N[C@@H](CC(N)=O)C(=O)N1)C(=O)N[C@H](C(=O)N[C@@H](CC(=O)O)C(N)=O)[C@@H](C)O [PSM-0501, Ac-Thr-Aib-Phe-[Cys-Lys-Arg-Ala-Asn-Cys]-Nle-Thr-Asp-NH2] (Ac-T[Aib]FCKRANC[Nle]TD-NH2; disulfide 4-9)
Kd [1, 3]: < 0.0126 µM | IC50 [2, 4]: < 0.2 µM

CC(=O)N[C@H](C(=O)NC(C)(C)C(=O)N[C@@H](Cc1ccc(Cl)cc1)C(=O)N[C@H]1CSSC[C@@H](C(=O)N[C@H](C(=O)N[C@H](C(N)=O)[C@@H](C)O)C(C)(C)C)NC(=O)[C@H](CC(N)=O)NC(=O)[C@H](CCCCNC(=O)COCCOCCNC(=O)CN2CCN(CC(=O)O)CCN(CC(=O)O)CCN(CC(=O)O)CC2)NC(=O)[C@H](CCCNC(=N)N)NC(=O)[C@H](CCCCN)NC1=O)[C@@H](C)O [PSM-0370, Ac-Thr-Aib-Pcf-[Cys-Lys-Arg-Lys(DOTA-020c)-Asn-Cys]-Tle-Thr-NH2] (Ac-T[Aib][Phe(4-Cl)]CKRK([AEEA-DOTA])NC[Tle]T-NH2; disulfide 4-9)
Kd [1, 3]: < 0.0126 µM | IC50 [2, 4]: < 0.2 µM

Ac-Thr-Aib-Phe-[Cys-Lys-Arg-Aib-Asn-Cys]-Tle-Thr-Cmp-lys (LuDOTA)-NH2 [PSM-0347]
pKD CAT [1, 5]: A (pKD values >7.9) | pIC50 [C4-2] CAT [2, 6]: A (pIC50 values >6.7)

C[C@@H](O)[C@H](NC(=O)[C@@H](NC(=O)[C@@H]1CSSC[C@H](NC(=O)[C@H](Cc2ccc(Cl)cc2)NC(=O)C(C)(C)NC(=O)[C@@H](NC(=O)CC2CCN(C(=O)CN3CCN(CC(=O)O)CCN(CC(=O)O)CCN(CC(=O)O)CC3)CC2)[C@@H](C)O)C(=O)N[C@@H](CCCCN)C(=O)N[C@@H](CCCCNC(=N)N)C(=O)NC(C)(C)C(=O)N[C@@H](CC(N)=O)C(=O)N1)C(C)(C)C)C(N)=O [PSM-0317, DOTA-Cmp-Thr-Aib-Pcf-[Cys-Lys-Har-Aib-Asn-Cys]-Tle-Thr-NH2] ({DOTA}-[X1]T[Aib][Phe(4-Cl)]CK[hArg][Aib]NC[Tle]T-NH2; disulfide 5-10)
Kd [1, 5]: < 0.0126 µM | IC50 [2, 6]: < 0.2 µM

CC(=O)N[C@H](C(=O)NC(C)(C)C(=O)N[C@@H](Cc1ccc(Cl)cc1)C(=O)N[C@H]1CSSC[C@@H](C(=O)N[C@H](C(=O)N[C@H](C(=O)N[C@H](CCCCNC(=O)CC2CCN(C(=O)CN3CCN(CC(=O)O)CCN(CC(=O)O)CCN(CC(=O)O)CC3)CC2)C(N)=O)[C@@H](C)O)C(C)(C)C)NC(=O)[C@H](CC(N)=O)NC(=O)C(C)(C)NC(=O)[C@H](CCCNC(=N)N)NC(=O)[C@H](CCCCN)NC1=O)[C@@H](C)O [PSM-0190, Ac-Thr-Aib-Pcf-[Cys-Lys-Arg-Aib-Asn-Cys]-Tle-Thr-lys(DOTA-Cmp)-NH2] (Ac-T[Aib][Phe(4-Cl)]CKR[Aib]NC[Tle]T[dK](Acetyl(1-DOTA-4-piperidyl))-NH2; disulfide 4-9)
Kd [1, 7]: < 0.0126 µM | IC50 [2, 8]: < 0.2 µM

CNCCCC[C@@H]1NC(=O)[C@@H](NC(=O)[C@H](Cc2cccnc2)NC(=O)C(C)(C)NC(=O)[C@@H](NC(=O)CC2CCN(C(=O)CN3CCN(CC(=O)O)CCN(CC(=O)O)CCN(CC(=O)O)CC3)CC2)[C@@H](C)O)CSSC[C@@H](C(=O)N[C@H](C(=O)N[C@H](C(N)=O)[C@@H](C)O)C(C)(C)C)NC(=O)[C@H](CC(N)=O)NC(=O)C(C)(C)NC(=O)[C@H](CCCNC(=N)NC)NC1=O [PSM-0296, DOTA-Cmp-Thr-Aib-Mpa-[Cys-Lys(Me)-Arg(Me)-Aib-Asn-Cys]-Tle-Thr-NH2] ({DOTA}-[X1]T[Aib][3Pal]C[Lys(Me)][Arg(Me)][Aib]NC[Tle]T-NH2; disulfide 5-10)
Kd [1, 5]: 0.126 to 0.501 µM | IC50 [2, 6]: 0.2 to 1.26 µM

C[C@@H](O)[C@H](NC(=O)[C@@H](NC(=O)[C@@H]1CSSC[C@H](NC(=O)[C@H](Cc2ccc(Cl)cc2)NC(=O)C(C)(C)NC(=O)CN2CCN(CC(=O)O)CCN(CC(=O)O)CCN(CC(=O)O)CC2)C(=O)N[C@@H](CCCCN)C(=O)N[C@@H](CCCNC(=N)N)C(=O)NC(C)(C)C(=O)N[C@@H](CC(N)=O)C(=O)N1)C(C)(C)C)C(N)=O [PSM-0290, DOTA-Aib-Pcf-[Cys-Lys-Arg-Aib-Asn-Cys]-Tle-Thr-NH2] ({DOTA}-[Aib][Phe(4-Cl)]CKR[Aib]NC[Tle]T-NH2; disulfide 3-8)
Kd [1, 5]: > 0.501 µM | IC50 [2, 6]: > 3.16 µM

C[C@@H](O)[C@H](NC(=O)[C@@H](NC(=O)[C@@H]1CSSC[C@H](NC(=O)[C@H](Cc2ccc(Cl)cc2)NC(=O)C(C)(C)NC(=O)CC2CCN(C(=O)CN3CCN(CC(=O)O)CCN(CC(=O)O)CCN(CC(=O)O)CC3)CC2)C(=O)N[C@@H](CCCCN)C(=O)N[C@@H](CCCNC(=N)N)C(=O)NC(C)(C)C(=O)N[C@@H](CC(N)=O)C(=O)N1)C(C)(C)C)C(N)=O [PSM-0248, DOTA-Cmp-Aib-Pcf-[Cys-Lys-Arg-Aib-Asn-Cys]-Tle-Thr-NH2] ({DOTA}-[X1][Aib][Phe(4-Cl)]CKR[Aib]NC[Tle]T-NH2; disulfide 4-9)
Kd [1, 7]: 0.0126 to 0.126 µM | IC50 [2, 8]: < 0.2 µM

CCCCCC(=O)N[C@H](C(=O)NC(C)(C)C(=O)N[C@@H](Cc1ccccc1)C(=O)N[C@H]1CSSC[C@@H](C(=O)N[C@H](C(=O)N[C@H](C(=O)NCCCOCCOCCOCCCNC(=O)CCC(=O)N[C@H](CCCCNC(=O)CN2CCN(CC(=O)O)CCN(CC(=O)O)CCN(CC(=O)O)CC2)C(N)=O)[C@@H](C)O)C(C)(C)C)NC(=O)[C@H](CC(N)=O)NC(=O)C(C)(C)NC(=O)[C@H](CCC(N)=O)NC(=O)[C@H](CCCCN)NC1=O)[C@@H](C)O [PSM-0289, Hex-Thr-Aib-Pho-[Cys-Lys-Gln-Aib-Asn-Cys]-Tle-Thr-Ttds-lys(DOTA)-NH2] (Hexanoyl-T[Aib]FCKQ[Aib]NC[Tle]T-{TtdsdLys(DOTA)NH2}; disulfide 4-9)
Kd [1, 5]: 0.0126 to 0.126 µM | IC50 [2, 6]: 0.2 to 1.26 µM
